The record followed here is publication PMC4503722, “Novel Phenotypic Outcomes Identified for a Public Collection of Approved Drugs from a Publicly Accessible Panel of Assays” (PLoS ONE, 2015).

For test [1], the system named is endothelial tube formation in co-cultures of ECFCs and ADSCs treated with VEGF. Put plainly: cells. The test is classed as cell-based, human.
Test [2] has as its system nuclear β-catenin in C2C12 cells. Briefly: cells. The format is cell-based.
For the next test, the system named is INS-1E cells. Briefly: cells. The format is cell-based, rat. As to conditions: Rattus norvegicus, INS-1E.
The test system of the next test is NCI-H716 cells. Put plainly: cells. The test is classed as cell-based, Human. Particulars: Homo sapiens.
For a further test, the system named is HeLa cells. Put plainly: cells. The format is cell-based. Particulars: for EC50: read-out: CellCycle G2/M.
In a further test the test system is DLD-1. Put plainly: cells. The test is classed as cell-based.
The next test has as its system SW480. Briefly: cells. The test is classed as cell-based.
The next test deals with HCT116. Put plainly: cells. The test is classed as cell-based.
The subject of test [3] is HCT116 cells treated with a GSK3β inhibitor. Put plainly: cells. The test is classed as cell-based. Particulars: Homo sapiens.
For a further test, the system named is Colo320. Put plainly: cells. The format is cell-based. As to conditions: Homo sapiens, COLO 320, read-out: Basal_Viability ATP Colo 320.
The test system of another test is HT-29. Put plainly: cells. The format is cell-based.
The next test deals with RKO. Put plainly: cells. The test is classed as cell-based.
Another test has as its target T1, hp70S6K1 (RPS6KB1) (Homo sapiens, UniProt P23443).
T1 construct: purchased Cerep (LANCE kinase assay platform, contract assay)
Put plainly: Cerep LANCE kinase assay hp70S6K1 (S1 assay 31). The test is classed as biochemical. Particulars: read-out: p70S6K1.

For a further test, the target named is T2, hKDR (Homo sapiens, UniProt P35968).
T2 construct: purchased Cerep (LANCE kinase assay platform, contract assay)
T2 sequence (P35968 20-1356): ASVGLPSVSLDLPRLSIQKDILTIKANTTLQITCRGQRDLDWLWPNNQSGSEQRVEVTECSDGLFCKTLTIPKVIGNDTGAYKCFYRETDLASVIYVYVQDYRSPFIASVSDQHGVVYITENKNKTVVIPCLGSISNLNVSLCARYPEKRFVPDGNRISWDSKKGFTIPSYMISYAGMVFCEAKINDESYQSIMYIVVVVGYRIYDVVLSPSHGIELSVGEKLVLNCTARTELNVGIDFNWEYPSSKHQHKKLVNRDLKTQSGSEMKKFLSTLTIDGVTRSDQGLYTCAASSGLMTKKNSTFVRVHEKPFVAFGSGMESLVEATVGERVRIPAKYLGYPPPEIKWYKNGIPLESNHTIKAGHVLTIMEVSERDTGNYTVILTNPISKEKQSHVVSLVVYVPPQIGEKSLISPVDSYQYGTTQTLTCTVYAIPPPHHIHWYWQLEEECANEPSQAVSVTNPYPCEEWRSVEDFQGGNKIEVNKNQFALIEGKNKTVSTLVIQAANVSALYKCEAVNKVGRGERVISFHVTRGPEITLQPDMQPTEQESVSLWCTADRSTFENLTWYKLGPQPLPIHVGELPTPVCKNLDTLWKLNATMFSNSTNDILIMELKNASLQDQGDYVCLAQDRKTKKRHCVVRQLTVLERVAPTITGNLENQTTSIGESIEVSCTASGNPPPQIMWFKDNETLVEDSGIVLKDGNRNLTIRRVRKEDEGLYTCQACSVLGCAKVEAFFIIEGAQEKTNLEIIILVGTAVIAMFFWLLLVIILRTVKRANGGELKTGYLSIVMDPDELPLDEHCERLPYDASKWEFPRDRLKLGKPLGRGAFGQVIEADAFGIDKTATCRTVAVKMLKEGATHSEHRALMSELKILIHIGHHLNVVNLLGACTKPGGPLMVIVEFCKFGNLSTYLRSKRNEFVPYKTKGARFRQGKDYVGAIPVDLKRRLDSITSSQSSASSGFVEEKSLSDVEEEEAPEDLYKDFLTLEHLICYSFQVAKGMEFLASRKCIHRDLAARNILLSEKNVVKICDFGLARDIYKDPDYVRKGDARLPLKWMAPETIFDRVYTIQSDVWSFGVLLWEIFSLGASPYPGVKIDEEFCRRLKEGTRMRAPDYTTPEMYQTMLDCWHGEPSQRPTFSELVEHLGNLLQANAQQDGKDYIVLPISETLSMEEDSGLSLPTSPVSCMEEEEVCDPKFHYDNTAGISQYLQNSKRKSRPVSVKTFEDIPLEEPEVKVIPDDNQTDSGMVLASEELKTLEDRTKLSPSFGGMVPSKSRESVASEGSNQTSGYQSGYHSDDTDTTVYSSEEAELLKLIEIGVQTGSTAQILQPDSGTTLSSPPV
Put plainly: Cerep LANCE kinase assay hKDR (S1 assay 32). The format is biochemical. Particulars: read-out: KDR.

A further test deals with T3, hJAK2 (Homo sapiens, UniProt O60674).
T3 construct: purchased Cerep (LANCE kinase assay platform, contract assay)
T3 sequence (O60674 whole entry): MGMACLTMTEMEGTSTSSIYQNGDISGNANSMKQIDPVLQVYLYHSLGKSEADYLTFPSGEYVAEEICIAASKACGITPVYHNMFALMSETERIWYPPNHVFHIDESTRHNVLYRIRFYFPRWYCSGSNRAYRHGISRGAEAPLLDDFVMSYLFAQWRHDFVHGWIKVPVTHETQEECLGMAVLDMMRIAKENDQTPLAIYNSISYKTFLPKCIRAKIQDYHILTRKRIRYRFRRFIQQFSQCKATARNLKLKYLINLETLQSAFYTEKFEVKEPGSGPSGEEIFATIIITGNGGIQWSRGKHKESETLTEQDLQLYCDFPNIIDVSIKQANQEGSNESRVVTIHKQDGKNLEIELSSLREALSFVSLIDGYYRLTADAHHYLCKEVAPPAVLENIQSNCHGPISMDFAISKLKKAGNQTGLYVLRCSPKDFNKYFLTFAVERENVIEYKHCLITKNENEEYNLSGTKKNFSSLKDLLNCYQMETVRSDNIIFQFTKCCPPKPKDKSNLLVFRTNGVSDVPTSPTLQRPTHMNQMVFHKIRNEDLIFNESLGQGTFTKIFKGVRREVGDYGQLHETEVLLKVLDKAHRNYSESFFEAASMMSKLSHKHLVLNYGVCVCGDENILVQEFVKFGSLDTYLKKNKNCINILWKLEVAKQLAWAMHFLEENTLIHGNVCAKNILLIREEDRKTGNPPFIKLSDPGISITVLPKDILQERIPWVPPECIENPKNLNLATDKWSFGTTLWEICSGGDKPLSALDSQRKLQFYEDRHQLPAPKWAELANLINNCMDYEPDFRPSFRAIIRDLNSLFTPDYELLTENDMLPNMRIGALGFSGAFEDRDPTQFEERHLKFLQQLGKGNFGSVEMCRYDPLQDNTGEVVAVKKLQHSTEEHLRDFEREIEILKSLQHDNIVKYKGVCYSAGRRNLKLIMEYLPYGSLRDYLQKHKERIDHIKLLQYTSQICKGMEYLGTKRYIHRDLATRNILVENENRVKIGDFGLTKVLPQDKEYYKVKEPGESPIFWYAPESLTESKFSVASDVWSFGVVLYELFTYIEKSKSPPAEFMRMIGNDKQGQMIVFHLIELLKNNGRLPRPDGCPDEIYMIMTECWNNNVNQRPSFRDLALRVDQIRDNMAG
Briefly: Cerep LANCE kinase assay hJAK2 (S1 assay 33). The test is classed as biochemical. Particulars: read-out: JAK2.

The target of the next test is T4, hGSK3b (Homo sapiens, UniProt P49841).
T4 construct: purchased Cerep (LANCE kinase assay platform, contract assay)
T4 sequence (P49841 whole entry): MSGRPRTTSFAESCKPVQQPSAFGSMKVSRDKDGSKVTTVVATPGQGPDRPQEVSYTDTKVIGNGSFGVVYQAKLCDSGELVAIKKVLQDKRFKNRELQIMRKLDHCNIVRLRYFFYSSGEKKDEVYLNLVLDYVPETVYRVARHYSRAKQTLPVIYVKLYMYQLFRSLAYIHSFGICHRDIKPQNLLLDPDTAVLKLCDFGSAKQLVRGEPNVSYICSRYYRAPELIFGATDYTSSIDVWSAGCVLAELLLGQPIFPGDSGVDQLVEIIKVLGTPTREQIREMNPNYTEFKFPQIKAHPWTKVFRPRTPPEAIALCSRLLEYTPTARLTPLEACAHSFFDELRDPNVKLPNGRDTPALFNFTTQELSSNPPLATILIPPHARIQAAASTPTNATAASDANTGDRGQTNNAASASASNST
Put plainly: Cerep LANCE kinase assay hGSK3b (S1 assay 34). The format is biochemical. Particulars: read-out: GSK3b.

The target in the next test is T5, hFLT3 (Homo sapiens, UniProt P36888).
T5 construct: purchased Cerep (LANCE kinase assay platform, contract assay)
T5 sequence (P36888 27-993): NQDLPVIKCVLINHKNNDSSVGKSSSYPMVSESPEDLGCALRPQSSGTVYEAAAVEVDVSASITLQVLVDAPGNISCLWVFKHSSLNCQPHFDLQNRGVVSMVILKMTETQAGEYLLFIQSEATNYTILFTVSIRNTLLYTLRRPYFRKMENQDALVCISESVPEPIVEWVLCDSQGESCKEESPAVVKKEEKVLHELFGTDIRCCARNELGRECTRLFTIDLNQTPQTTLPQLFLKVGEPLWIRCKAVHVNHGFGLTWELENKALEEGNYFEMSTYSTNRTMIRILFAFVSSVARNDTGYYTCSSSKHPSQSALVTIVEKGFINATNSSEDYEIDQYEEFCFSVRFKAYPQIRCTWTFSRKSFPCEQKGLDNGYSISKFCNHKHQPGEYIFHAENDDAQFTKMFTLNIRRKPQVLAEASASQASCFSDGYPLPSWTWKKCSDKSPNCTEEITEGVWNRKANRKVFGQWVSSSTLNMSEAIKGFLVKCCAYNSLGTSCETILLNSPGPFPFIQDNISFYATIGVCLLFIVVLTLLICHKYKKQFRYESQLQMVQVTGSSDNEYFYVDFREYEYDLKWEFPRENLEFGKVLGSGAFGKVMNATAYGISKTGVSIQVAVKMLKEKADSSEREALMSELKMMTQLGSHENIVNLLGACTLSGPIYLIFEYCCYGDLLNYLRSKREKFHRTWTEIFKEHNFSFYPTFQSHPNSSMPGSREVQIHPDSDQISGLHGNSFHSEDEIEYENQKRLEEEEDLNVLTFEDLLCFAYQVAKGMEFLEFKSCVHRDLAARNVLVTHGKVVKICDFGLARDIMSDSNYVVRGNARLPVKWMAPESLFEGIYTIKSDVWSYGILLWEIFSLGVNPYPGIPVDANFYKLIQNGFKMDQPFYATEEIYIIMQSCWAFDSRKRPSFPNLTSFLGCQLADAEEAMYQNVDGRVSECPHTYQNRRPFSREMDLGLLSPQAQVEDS
Briefly: Cerep LANCE kinase assay hFLT3 (S1 assay 35). The test is classed as biochemical. As to conditions: read-out: FLT3.

For another test, the system named is SNU-C1. Briefly: cells. The format is cell-based. Particulars: Homo sapiens.
The mark [4] stands for this setting: Homo sapiens, read-out: Anti-Angiogenesis.
[5] abbreviates: Mus musculus, C2C12, read-out: Wnt Pathway.
[6] abbreviates: NCI-H716, read-out: GLP 1 Secretion.
Where [7] appears, read: Homo sapiens, DLD-1, read-out: Basal_Viability ATP DLD-1.
[8] abbreviates: Homo sapiens, SW480, read-out: Basal_Viability ATP SW480.
The mark [9] stands for this setting: Homo sapiens, HCT-116, read-out: Basal_Viability ATP HCT116.
Where [10] appears, read: HCT-116, read-out: GSK3b inh pretreated_Viability ATP HCT116.
Where [11] appears, read: Homo sapiens, HT-29, read-out: Basal_Viability ATP HT-29.
Setting [12] is: Homo sapiens, RKO, read-out: Basal_Viability ATP RKO.
The mark [13] stands for this setting: Homo sapiens, IC50 / EC50, endothelial tube area, ADSC/ECFC co-culture, read-out: Anti-Angiogenesis.
Where [14] appears, read: Homo sapiens, read-out: Anti-Angio IC50.
[15] abbreviates: Mus musculus, C2C12, read-out: Wnt pot. EC50.
Setting [16] is: NCI-H716, read-out: GLP1 sec. EC50.
Where [17] appears, read: HCT-116, read-out: HCT-116 (GSK3β) viab. IC50, Table 2, GSK3β inhibitor LY2090314 20 nM, 72 h, Cell TiterGlo, 20 coded.
Setting [18] is: HCT-116, GSK3b inhibitor pretreated, read-out: GSK3b inh pretreated_Viability ATP HCT116.

Where two headings read alike, the source gives them in different places.

T1 sequence (P23443 whole entry): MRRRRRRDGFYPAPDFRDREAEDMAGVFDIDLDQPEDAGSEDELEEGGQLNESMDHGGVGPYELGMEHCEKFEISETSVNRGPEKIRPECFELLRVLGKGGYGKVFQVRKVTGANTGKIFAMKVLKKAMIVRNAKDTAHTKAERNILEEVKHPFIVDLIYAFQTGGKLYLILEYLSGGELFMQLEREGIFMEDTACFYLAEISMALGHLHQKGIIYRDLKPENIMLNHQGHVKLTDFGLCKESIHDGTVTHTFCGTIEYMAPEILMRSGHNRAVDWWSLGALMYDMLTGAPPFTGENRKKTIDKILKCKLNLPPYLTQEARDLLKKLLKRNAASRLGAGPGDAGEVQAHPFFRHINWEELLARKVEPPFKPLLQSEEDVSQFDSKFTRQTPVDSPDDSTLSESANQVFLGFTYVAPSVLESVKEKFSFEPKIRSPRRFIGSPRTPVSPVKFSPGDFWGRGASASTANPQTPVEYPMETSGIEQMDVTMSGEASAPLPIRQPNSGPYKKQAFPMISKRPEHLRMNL

Take `CC(C)(C)[C@H]1CC[C@H](CC2=C(O)C(=O)c3ccccc3C2=O)CC1` [Buparvaquone]: the IC50 in [1] (setting [4]) came out at 1960 nM; with DLD-1 (setting [7]), 218 nM; in the test with SW480 (setting [8]), 205 nM; in the test on HCT116 (setting [9]), 227 nM; in test [3] (setting [10]), 66.7 nM; with Colo320, 255 nM. Besides, the IC50 was 3390 nM in the test on HT-29 (setting [11]); 133 nM in the test on RKO (setting [12]); above 20000 nM at hp70S6K1 (RPS6KB1); above 20000 nM on hKDR; above 20000 nM at hJAK2; above 20000 nM on hGSK3b. The IC50 at hFLT3 is above 20000 nM. Besides, the EC50 is above 10000 nM in test [2] (setting [5]); above 10000 nM with INS-1E cells (read-out: Insulin Secretion); above 10000 nM in the test on NCI-H716 cells (setting [6]); above 10000 nM in the test with HeLa cells (Homo sapiens, HeLa).
Regarding `COC(=O)Nc1nc2ccc([S+]([O-])c3ccccc3)cc2[nH]1` (stereo not shown) [Oxfendazole], the IC50 in test [1] (setting [4]) was 288 nM; in the test with DLD-1 (setting [7]), above 20000 nM; in the test with SW480 (setting [8]) it was above 20000 nM; with HCT116 (setting [9]) it was 1 nM; in [3] (setting [10]), 1 nM; in the test on HT-29 (setting [11]) it was above 20000 nM. Besides, the IC50 with RKO (setting [12]) was 1 nM; on hp70S6K1 (RPS6KB1) (kinase assay) it was above 20000 nM; at hKDR (kinase assay), above 20000 nM; on hJAK2 (kinase assay), above 20000 nM; on hGSK3b (kinase assay), above 20000 nM; at hFLT3 (kinase assay), above 20000 nM. Moreover, the EC50 was 468 nM in test [2] (setting [5]); above 10000 nM in the test with INS-1E cells (read-out: Insulin Secretion); above 10000 nM with NCI-H716 cells (setting [6]); 331 nM with HeLa cells (Homo sapiens, HeLa).
On to `CC[C@]1(O)C[C@@H]2CN(CCc3c([nH]c4ccccc34)[C@@](C(=O)OC)(c3cc4c(cc3OC)N(C)[C@H]3[C@@](O)(C(=O)OC)[C@H](OC(C)=O)[C@]5(CC)C=CCN6CC[C@]43[C@@H]65)C2)C1` [Vinblastine], for which the IC50 was found to be 2.3 nM in test [1] (setting [4]); 2.6 nM in test [1] (read-out: Anti-Angiogenesis); 1 nM in test [3] (setting [10]); 1 nM with Colo320; 1 nM in the test with HT-29 (setting [11]); 1 nM with RKO (setting [12]). Also, the IC50 on hp70S6K1 (RPS6KB1), at hKDR, on hJAK2, at hGSK3b and at hFLT3 was above 20000 nM throughout. In addition, the EC50 is 5.8 nM in test [2] (setting [5]); 3.5 nM in test [2] (read-out: Wnt Pathway); above 10000 nM in the test with INS-1E cells (read-out: Insulin Secretion); above 10000 nM in the test on NCI-H716 cells (setting [6]); 3.2 nM in the test with HeLa cells (Homo sapiens, HeLa); 4.83 nM in the test on HeLa cells.
Consider `CC(C)C[C@H](NC(=O)[C@H](CCc1ccccc1)NC(=O)CN1CCOCC1)C(=O)N[C@@H](Cc1ccccc1)C(=O)N[C@@H](CC(C)C)C(=O)[C@@]1(C)CO1` [carfilzomib, reference compound], for which the IC50 in test [1] (setting [13]) stood at 20.4 nM; in [1] (setting [14]), 20 nM; in the test on DLD-1 (Homo sapiens, DLD-1, 72 h, Table 2; 72 h, Cell TiterGlo, non-adherent; 20 coded; read-out: DLD-1 viab. IC50), 7 nM; with DLD-1 (Homo sapiens, DLD-1, basal; read-out: Basal_Viability ATP DLD-1), 6.96 nM; with HCT116 (Homo sapiens, HCT-116, 72 h, read-out: HCT-116 viab. IC50, Table 2; basal; 72 h, Cell TiterGlo, non-adherent; 20 coded), 6 nM; in the test on HCT116 (Homo sapiens, HCT-116, basal; read-out: Basal_Viability ATP HCT116), 5.58 nM. Also, the IC50 in [3] (setting [17]) turned out to be 2 nM; in test [3] (setting [18]), 1.73 nM; in the test with HT-29 (Homo sapiens, HT-29; Table 2; 72 h, Cell TiterGlo, non-adherent; 20 coded; read-out: HT-29 viab. IC50) it was 3 nM; in the test on HT-29 (Homo sapiens, HT-29; read-out: Basal_Viability ATP HT-29), 3.18 nM; in the test on RKO (Homo sapiens, RKO; Table 2; 72 h, Cell TiterGlo, non-adherent; 20 coded; read-out: RKO viab. IC50), 4 nM; in the test with RKO (Homo sapiens, RKO; read-out: Basal_Viability ATP RKO), 3.94 nM. Further, the IC50 is 1 nM with SNU-C1 (SNU-C1, 72 h, Table 2, 72 h, Cell TiterGlo, non-adherent, 20 coded, read-out: SNU-C1 viab. IC50); 1.47 nM in the test on SNU-C1 (SNU-C1, basal, read-out: Basal_Viability ATP SNU-C1); above 20000 nM at hp70S6K1 (RPS6KB1); above 20000 nM on hKDR; above 20000 nM at hJAK2; above 20000 nM on hGSK3b. In addition, the IC50 on hFLT3 was above 20000 nM. In addition, the EC50 in test [2] (Mus musculus, C2C12, IC50 / EC50, C2C12 beta-catenin translocation, read-out: Wnt Pathway) is 15.2 nM; in [2] (setting [15]) it was 15 nM; with INS-1E cells (read-out: Ins. sec. EC50) it was above 10000 nM; with NCI-H716 cells (setting [16]) it was above 10000 nM; in the test on HeLa cells (Homo sapiens, HeLa, IC50 / EC50, HeLa) it was above 10000 nM.
For `C=C(C)[C@H]1Cc2c(ccc3c2O[C@@H]2COc4cc(OC)c(OC)cc4[C@@H]2C3=O)O1` [rotenone, reference compound], the IC50 in [1] (setting [13]) was determined as 25.7 nM; in test [1] (setting [14]), 26 nM; in the test with DLD-1 (Homo sapiens, DLD-1; Table 2; 72 h, Cell TiterGlo, non-adherent; 20 coded; read-out: DLD-1 viab. IC50), 350 nM; in the test on DLD-1 (Homo sapiens, DLD-1; read-out: Basal_Viability ATP DLD-1), 350 nM; with SW480 (Homo sapiens, SW480; Table 2; 72 h, Cell TiterGlo, non-adherent; 20 coded; read-out: SW480 viab. IC50), 160 nM; with SW480 (Homo sapiens, SW480; read-out: Basal_Viability ATP SW480), 162 nM. The IC50 in the test on HCT116 (Homo sapiens, HCT-116, read-out: HCT-116 viab. IC50; Table 2; basal; 72 h, Cell TiterGlo, non-adherent; 20 coded) is 1200 nM; in the test with HCT116 (Homo sapiens, HCT-116; read-out: Basal_Viability ATP HCT116) it was 1180 nM; in test [3] (setting [17]) it was 67 nM; in [3] (setting [18]), 66.7 nM; at hp70S6K1 (RPS6KB1) it was above 20000 nM; at hKDR, above 20000 nM. In addition, the IC50 on hJAK2, at hGSK3b and on hFLT3 was above 20000 nM throughout. Also, the EC50 in test [2] (setting [15]) was 250 nM; in test [2] (Mus musculus, IC50 / EC50, C2C12 beta-catenin translocation, read-out: Wnt Pathway), 254 nM; in the test with INS-1E cells (read-out: Ins. sec. EC50), above 10000 nM; in the test with NCI-H716 cells (setting [16]), above 10000 nM; in the test with HeLa cells (Homo sapiens, IC50 / EC50, HeLa), 311 nM. In addition, the “G2/M IC50 / EC50” value with HeLa cells turned out to be 310 nM.
With `CC[C@]1(O)C[C@H]2CN(CCc3c([nH]c4ccccc34)[C@@](C(=O)OC)(c3cc4c(cc3OC)N(C=O)[C@H]3[C@@](O)(C(=O)OC)[C@H](OC(C)=O)[C@]5(CC)C=CCN6CC[C@]43[C@@H]65)C2)C1` [vincristine], the IC50 in test [1] (setting [4]) is 6.5 nM; with DLD-1 (setting [7]), 786 nM; in the test on SW480 (setting [8]) it was 3080 nM; with HCT116 (setting [9]), 126 nM; in [3] (setting [10]), 66.7 nM; on hp70S6K1 (RPS6KB1), above 20000 nM. In addition, the IC50 on hKDR, at hJAK2, on hGSK3b and on hFLT3 was above 20000 nM in each case. The EC50 in [2] (setting [5]) was 4 nM; with INS-1E cells (read-out: Insulin Secretion) it was above 10000 nM; in the test with NCI-H716 cells (setting [6]) it was above 10000 nM; in the test with HeLa cells (Homo sapiens, HeLa), 5.9 nM.
